From ChEMBL document CHEMBL3297689, “Phenylalanine-Based Inactivator of AKT Kinase: Design, Synthesis, and Biological Evaluation” (ACS Med Chem Lett, 2014)
Each block holds one molecule with its values, some of them ahead of it. Active and inactive are the calls of the source. The rule behind the calls is not given here. Where a SMILES comes first, the peptide text is derived from it. [ ]: non-standard residue; d: D form. NMeV = CN[C@H](C(=O)O)C(C)C; GABA = NCCCC(=O)O

Assays:
[1] = Growth inhibition of human HCT116 cells after 72 hrs by coulter counter method; assay type: functional, cell-based; details: HCT-116, 72 h
NCI-H460 = assay: Growth inhibition of human NCI-H460 cells after 72 hrs by coulter counter method; assay type: functional, cell-based; details: NCI-H460, 72 h
[2] = molecular target: T1, RAC-alpha serine/threonine-protein kinase (Homo sapiens, UniProt P31749); assay: Inhibition of AKT1 (unknown origin) after 30 mins by scintillation counting analysis in presence of 100 uM ATP
[3] = molecular target: T1, RAC-alpha serine/threonine-protein kinase; assay: Inhibition of AKT1 (unknown origin) after 1 hr by Z'-LYTE kinase assay in presence of 75 uM ATP
[4] = molecular target: T1, RAC-alpha serine/threonine-protein kinase; assay: Binding affinity to AKT1 (unknown origin) assessed as covalent modification at Cys310 residue by mass spectrometry

T1 sequence (P31749 whole entry): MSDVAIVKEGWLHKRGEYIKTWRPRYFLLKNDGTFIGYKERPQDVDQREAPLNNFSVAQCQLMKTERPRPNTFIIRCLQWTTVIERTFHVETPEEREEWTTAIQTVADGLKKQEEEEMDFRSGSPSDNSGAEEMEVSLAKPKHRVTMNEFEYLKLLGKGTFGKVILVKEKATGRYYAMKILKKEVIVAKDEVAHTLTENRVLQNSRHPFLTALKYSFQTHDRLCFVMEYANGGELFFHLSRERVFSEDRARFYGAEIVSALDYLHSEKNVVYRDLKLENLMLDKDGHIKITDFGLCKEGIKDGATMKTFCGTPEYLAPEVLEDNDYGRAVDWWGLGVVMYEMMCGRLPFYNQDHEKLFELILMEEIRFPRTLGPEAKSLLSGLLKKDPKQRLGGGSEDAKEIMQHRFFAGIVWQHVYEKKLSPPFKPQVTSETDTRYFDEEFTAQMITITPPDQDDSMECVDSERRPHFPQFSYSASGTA

SMILES: NC1(c2ccc(-c3nc4ccn5c(=O)[nH]nc5c4cc3-c3ccccc3)cc2)CCC1 [MK-2206]
- IC50 [1]: 7.5 µM
- IC50 (NCI-H460): 5.4 µM

SMILES: COC[C@H](NC(=O)[C@H](Cc1ccc(O)cc1)NC(=O)[C@H](C(C)C)N(C)C(=O)[C@H](CCCNC(=N)N)NC(=O)[C@@H]1CCCN1C(=O)[C@@H](N)CCCNC(=N)N)C(=O)NCCCC(=O)O (H-RPR[NMeV]YS(Me)[GABA]-OH)
- IC50 [2]: 0.2 µM

SMILES: C=CC(=O)[C@H](Cc1ccccc1)NC(=O)OCc1cn(CCCCCCNC(=S)Nc2ccc(-c3c4ccc(=O)cc-4oc4cc(O)ccc34)c(C(=O)O)c2)nn1
- Activity [4]: Active

SMILES: CCn1c(-c2nonc2N)nc2c(C#CC(C)(C)O)ncc(OC[C@H]3CCCNC3)c21 [GSK-690693]
- IC50 [1]: 8.2 µM
- IC50 (NCI-H460): 5.4 µM

Results, then the molecule that gave them:

- IC50 [3]: 24.7 µM
SMILES: CC(C)(C)OC(=O)NN(Cc1ccccc1)C(=O)CBr

- IC50 [3]: > 100 µM
SMILES: CC(C)(C)OC(=O)N[C@@H](Cc1ccccc1)C(=O)NCCI

- IC50 [3]: 4.68 µM
SMILES: CC(C)(C)OC(=O)NN(Cc1ccccc1)C(=O)CN1C(=O)C=CC1=O
